# Assay results taken from patent US9144251B2, “High-potency sweetener composition with mineral and compositions sweetened therewith” (The Coca-Cola Company, priority 2005, dated 2015).
# Assay: Sensory evaluation of sweetness linger and sugar-like taste by a panel of experts (Example Sets G and H)
# Assay type: in vivo
# Parameters: key: 0=no sweetness linger; 1 very slight sweetness linger; 2=slight sweetness linger; 3 moderate sweetness linger; 4=moderately high sweetness linger; 5=high sweetness linger
# Conditions: scale 0-5; for Sweetness Linger rating (defined anchors of the scale): sucrose, 500 ppm of REBA control sample
# Method: Sensory evaluation of the samples prepared in Example Set G was carried out under the following protocol, similar to that described hereinabove. In this test protocol, none of the samples were swallowed. All samples were expectorated and the mouth was rinsed with water after the tasting. Immediately upon sensing maximal sweetness, the sample was expectorated, the mouth was rinsed with water and the rate of sweetness decay (“Sweetness Linger”) was measured, where attention was focused on the sweetness 3-4 min after the water rinse. After sample tasting was complete, a salty oyster cracker was chewed followed by a water rinse, and at least 5 minutes followed before tasting the next sample. The sweetness linger was rated by a panel of experts in the sensory evaluation of foods and beverages using the following scale: 0=no sweetness linger, 1 very slight sweetness linger, 2=slight sweetness linger, 3 moderate sweetness linger, 4=moderately high sweetness linger, 5=high sweetness linger.
# The “Sweetness Linger” rating for sucrose observed by this protocol is defined as 0. The Sweetness Linger of a 500 ppm of REBA control sample is defined as 5. Experimental samples were tasted by the same protocol, always allowing sufficient time between samples to ensure re-equilibration of the sensory system. Re-tasting of control samples during the course of the experiment was allowed and encouraged.
# The comparison taste test was performed between two controls and addition of sweet taste improving additive on the onset and/or sweetness linger.
# Sweet taste improving compositions were combined with a REBA solution to determine their effect on sweetness linger. Screening of the initial sample, or further dilutions, allowed identification of concentrations which were just above-threshold, herein defined as “near-threshold concentrations.” The near-threshold additive concentrations, a 6- to 100-fold higher higher additive concentration (depending on the off-taste intensity), and a mid-level additive concentration (halfway between the near-threshold and higher additive concentration) were evaluated to determine the effect on sweetness linger of a REBA solution.
# Formulations of a 500 ppm REBA in a phosphoric acid solution (75%) at a pH of 2.5 with phosphoric acid or a pH of 3.1 with citric acid and potassium citrate were prepared prior to the addition of the additives at the three levels of concentration.
# Sensory evaluation using the protocol described in Example Set G then was used to evaluate the sweetness linger of the REBA solutions.
Molecule,"sweetness linger rating, control sample (400 ppm REBA in citric acid/potassium citrate composition equivalent to diet lemon-lime beverage, no additive)","sweetness linger rating, control sample (500 ppm in carbon-treated water, phosphoric acid (75%) to pH 2.4-2.5, no additive)",Sweetness Linger rating (defined anchors of the scale),"sweetness linger rating, control sample (8 g of sugar in 100 ml of citrate buffer)","sweetness linger rating, control sample (10 g of sugar in 100 ml carbon treated water, phosphoric acid (75%) to pH 2.4-2.5)"
rebaudioside A,5,5,5,–,–
"OC[C@H]1O[C@@](CO)(O[C@H]2O[C@H](CO)[C@@H](O)[C@H](O)[C@H]2O)[C@@H](O)[C@@H]1O [sugar, sucrose]",–,–,0,0,0
